Here are results for 13 compounds from patent US12115178B2, “Acylated active agents and methods of their use for the treatment of autoimmune disorders” (Flagship Pioneering Innovations V, Inc., priority 2018, dated 2024).

Where a name gives a salt, the structure may show the parent alone.

The nature of data set [1]: Assay 2. Stability in Simulated Intestinal Fluid (SIF). Conditions: SIF pH 6.7 with pancreatin, 1 μM, 37° C. The data set is classed as in vitro ADME. The method, boiled down:
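Degradation rates came from LC/MS of acetonitrile-quenched samples drawn at intervals, starting at T0. The medium was freshly made pH 6.7 FaSSIF containing pancreatin, and test compound was present at 1 µM while being shaken at 37 °C.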

A short description of data set [2]: Assay 1. Stability in Simulated Gastric Fluid (SGF). Format: in vitro ADME. To be noted: SGF pH 1.6 with pepsin, 1 μM, 37° C. Summed up: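 Degradation rate from LC/MS of acetonitrile-quenched aliquots (T0, then regular intervals). Fresh SGF (pH 1.6 NaCl, FaSSIF powder, pepsin 0.1 mg/mL) held compound at 1 μM final, 37° C; 1 mM DMSO stock.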
The nature of data set [3]: Assay 3. In vitro Colonic Material Stability Assay. The data set is classed as in vitro ADME. To be noted: colonic material slurry, anaerobic, 1 or 10 μM.
Data set [4] relates to type II collagen arthritis. In words: In vivo rheumatoid arthritis model (semi-established type II collagen arthritis). The arrangement: species or system Lewis rats. To be noted: 10 mg/kg PO BID, rats. The method, then: A study was conducted to determine the efficacy of test articles dosed by the oral (PO) route for inhibition of the inflammation (paw swelling), cartilage destruction, and bone resorption that occurs in semi-established type II collagen arthritis in female Lewis rats. Rats (10 per group) were injected intradermally (ID) with porcine type II collagen to induce arthritis; one group of rats (4 per group) served as vehicle-treated naïve controls. […] Positive controls were treated PO, BID with the reference compound Tofacitinib citrate (10 mg/kg). The rats were euthanized for necropsy on study day 21 (animals #1-5 in each group, animals #1-2 in naïve group) or 22 (animals #6-10 in each group, animals #3-4 in naïve group). Efficacy evaluation was based on animal body weights (Table 9), daily ankle caliper measurements (FIG. 4), ankle diameter expressed as area under the curve (AUC) (Table 10), terminal hind paw weights (Table 11), histopathologic evaluation of hind paws (Ankle Inflammation score: Table 12, Ankle Pannus score: Table 13, Ankle Cartilage Damage score: Table 14, Ankle Bone Resorption score: Table 15, Ankle Periosteal Bone score: Table 16, Ankle Periosteal Bone Width: Table 17) and knees (Knee Inflammation score: Table 18, Knee Pannus score: Table 19, Knee Cartilage Damage score: Table 20, Knee Bone Resorption score: Table 21), and relative spleen to body weight ratio (Table 22). Terminal serum was analyzed by enzyme-linked immunosorbent assay (ELISA) for anti-type II collagen antibodies (IgG) (Table 23). […] Statistics were conducted using ordinary one-way ANOVA with Dunnett's multiple comparison correction in GraphPad Prism.

Take `CCCC(=O)Oc1ccc(-c2oc3cc(OC(=O)CCC)cc(OC(=O)CCC)c3c(=O)c2OC(=O)CCC)cc1` [Compound 166, 4-[3,5,7-tris(butanoyloxy)-4-oxo-4H-chromen-2-yl]phenyl butanoate]: in data set [1], the “Assay 2 (SIF) (% @ Remaining 4 hours)” value is “A (<25% of the tested compound remaining)”. In addition, in data set [2], the “Assay 1 (SGF) (% Remaining @ 1 hour)” value was “B (25-75% of the tested compound remaining)”. Also, the “Assay 3 (% Remaining at 24 h)” value in data set [3] is “A (<25% of the tested compound remaining)”.
As to `CCC(=O)Oc1ccc(-c2oc3cc(OC(=O)CC)cc(OC(=O)CC)c3c(=O)c2OC(=O)CC)cc1` [Compound 167, 4-[4-oxo-3,5,7-tris(propanoyloxy)-4H-chromen-2-yl]phenyl propanoate], the “Assay 2 (SIF) (% @ Remaining 4 hours)” value in data set [1] is reported as “A (<25% of the tested compound remaining)”. Moreover, the “Assay 1 (SGF) (% Remaining @ 1 hour)” value in data set [2] is recorded as “B (25-75% of the tested compound remaining)”. For the same compound, the “Assay 3 (% Remaining at 24 h)” value in data set [3] is listed as “A (<25% of the tested compound remaining)”.
`CCC(=O)Oc1ccc(-c2cc(=O)c3c(O)cc(OC(=O)CC)cc3o2)cc1` [Compound 168, 5-hydroxy-4-oxo-2-[4-(propanoyloxy)phenyl]-4H-chromen-7-yl propanoate]: in data set [1], the “Assay 2 (SIF) (% @ Remaining 4 hours)” value is reported as “A (<25% of the tested compound remaining)”. Besides, the “Assay 1 (SGF) (% Remaining @ 1 hour)” value in data set [2] is on record as “B (25-75% of the tested compound remaining)”. The “Assay 3 (% Remaining at 24 h)” value in data set [3] is reported as “A (<25% of the tested compound remaining)”.
On to `CCCC(=O)Oc1ccc(-c2cc(=O)c3c(OC(=O)CCC)cc(OC(=O)CCC)cc3o2)cc1` [Compound 170, 5-(butanoyloxy)-2-[4-(butanoyloxy)phenyl]-4-oxo-4H-chromen-7-yl butanoate], for which the “Assay 2 (SIF) (% @ Remaining 4 hours)” value in data set [1] was “A (<25% of the tested compound remaining)”. Further, in data set [2], the “Assay 1 (SGF) (% Remaining @ 1 hour)” value is “B (25-75% of the tested compound remaining)”. Further, the “Assay 3 (% Remaining at 24 h)” value in data set [3] was “A (<25% of the tested compound remaining)”.
As to `CCC(=O)Oc1ccc(-c2cc(=O)c3c(OC(=O)CC)cc(OC(=O)CC)cc3o2)cc1` [Compound 172, 4-oxo-7-(propanoyloxy)-2-[4-(propanoyloxy)phenyl]-4H-chromen-5-yl propanoate], the “Assay 2 (SIF) (% @ Remaining 4 hours)” value in data set [1] is recorded as “A (<25% of the tested compound remaining)”. Further, in data set [2], the “Assay 1 (SGF) (% Remaining @ 1 hour)” value is “C (>75% of the tested compound remaining)”. Also, the “Assay 3 (% Remaining at 24 h)” value in data set [3] is recorded as “B (25-75% of the tested compound remaining)”.
The like results for `CCCC(=O)O[C@H]1[C@@H](Oc2ccc(N)cc2C(=O)O)OC[C@@H](OC(=O)CCC)[C@H]1OC(=O)CCC` [Compound 185, 5-amino-2-(((2R,3R,4R,5R)-3,4,5-tris(butyryloxy)tetrahydro-2H-pyran-2-yl)oxy)benzoic acid] were, in that order, “B (25-75% of the tested compound remaining)”, “C (>75% of the tested compound remaining)” and “B (25-75% of the tested compound remaining)”.
`CCCC(=O)O[C@@H]1[C@@H](OC(=O)CCC)[C@H](Oc2ccccc2C(=O)O)OC[C@H]1OC(=O)CCC` [Compound 186, 2-{[(2S,3R,4S,5R)-3,4,5-tris(butanoyloxy)oxan-2-yl]oxy}benzoic acid]: the “Assay 2 (SIF) (% @ Remaining 4 hours)” value in data set [1] is “A (<25% of the tested compound remaining)”. In addition, in data set [2], the “Assay 1 (SGF) (% Remaining @ 1 hour)” value was “C (>75% of the tested compound remaining)”. The “Assay 3 (% Remaining at 24 h)” value in data set [3] is “A (<25% of the tested compound remaining)”.
As for `CCCC(=O)Oc1cc(OC(=O)CCC)c2c(c1)O[C@H](c1ccc(OC(=O)CCC)c(OC(=O)CCC)c1)[C@H](OC(=O)CCC)C2` [Compound 193, (2R,3R)-2-[3,4-bis(butanoyloxy)phenyl]-5,7-bis(butanoyloxy)-3,4-dihydro-2H-1-benzopyran-3-yl butanoate], in data set [1], the “Assay 2 (SIF) (% @ Remaining 4 hours)” value was “A (<25% of the tested compound remaining)”. Besides, the “Assay 1 (SGF) (% Remaining @ 1 hour)” value in data set [2] is listed as “C (>75% of the tested compound remaining)”. For the same compound, the “Assay 3 (% Remaining at 24 h)” value in data set [3] is “A (<25% of the tested compound remaining)”.
As for `CCC(=O)Oc1cc(OC(=O)CC)c2c(c1)O[C@H](c1ccc(OC(=O)CC)c(OC(=O)CC)c1)[C@H](OC(=O)CC)C2` [Compound 194, (2R,3R)-2-[3,4-bis(propanoyloxy)phenyl]-5,7-bis(propanoyloxy)-3,4-dihydro-2H-1-benzopyran-3-yl propanoate], the “Assay 2 (SIF) (% @ Remaining 4 hours)” value in data set [1] is given as “A (<25% of the tested compound remaining)”. Moreover, the “Assay 1 (SGF) (% Remaining @ 1 hour)” value in data set [2] is “B (25-75% of the tested compound remaining)”. In data set [3], the “Assay 3 (% Remaining at 24 h)” value is given as “A (<25% of the tested compound remaining)”.
As to `O=C(Cc1c[nH]c2ccccc12)Oc1cc(C(=O)O)cc(OC(=O)Cc2c[nH]c3ccccc23)c1OC(=O)Cc1c[nH]c2ccccc12` [Compound 200, 3,4,5-tris({[2-(1H-indol-3-yl)acetyl]oxy})benzoic acid], in data set [1], the “Assay 2 (SIF) (% @ Remaining 4 hours)” value was “A (<25% of the tested compound remaining)”. The “Assay 1 (SGF) (% Remaining @ 1 hour)” value in data set [2] is recorded as “C (>75% of the tested compound remaining)”. Moreover, the “Assay 3 (% Remaining at 24 h)” value in data set [3] is reported as “A (<25% of the tested compound remaining)”.
On to `CCC(=O)Oc1cc(C(=O)O)cc(OC(=O)CC)c1OC(=O)CC` [Compound 201, 3,4,5-tris(propanoyloxy)benzoic acid], for which, in data set [1], the “Assay 2 (SIF) (% @ Remaining 4 hours)” value was “A (<25% of the tested compound remaining)”. Moreover, in data set [2], the “Assay 1 (SGF) (% Remaining @ 1 hour)” value was “C (>75% of the tested compound remaining)”. The “Assay 3 (% Remaining at 24 h)” value in data set [3] is listed as “A (<25% of the tested compound remaining)”.
Turning to `CC(=O)O[C@H]1OC[C@H](OC(C)=O)[C@H](OC(C)=O)[C@H]1OC(C)=O` [Compound 219, (2R,3R,4S,5S)-tetrahydro-2H-pyran-2,3,4,5-tetrayl tetraacetate], the “Assay 2 (SIF) (% @ Remaining 4 hours)” value in data set [1] is on record as “A (<25% of the tested compound remaining)”. The “Assay 1 (SGF) (% Remaining @ 1 hour)” value in data set [2] was “C (>75% of the tested compound remaining)”. The “Assay 3 (% Remaining at 24 h)” value in data set [3] is given as “A (<25% of the tested compound remaining)”.
In the case of `C[C@@H]1CCN(C(=O)CC#N)C[C@@H]1N(C)c1ncnc2[nH]ccc12` [Tofacitinib citrate, reference compound], in data set [4], the “Mean Ankle Diameter AUC (mm*day)” value came out at 73.82 mm*day, the “Mean Ankle Periosteal Bone width (um)” value turned out to be 0.00 um, the “Mean Knee Inflammation score (0-5)” value came to 0.10 and the “Mean Terminal hind paw weights” value is 1.4321 g. Also, in data set [4], the “Mean body weight change, day −1 to 21 (%)” value is on record as 20.2% and the “Relative Spleen to Body Weight (Mean)” value turned out to be 0.1796. Also, in data set [4] (0 = normal, 5 = severe), the “Mean Ankle Bone Resorption score (0-5)” value is reported as 0.00, the “Mean Ankle Cartilage Damage score (0-5)” value worked out at 0.00, the “Mean Ankle Pannus score (0-5)” value is on record as 0.00 and the “Mean Ankle Periosteal Bone score (0-5)” value was 0.00. Further, in data set [4] (0 = normal, 5 = severe), the “Mean Ankle inflammation score (0-5)” value is 1.4321, the “Mean Knee Bone Resorption score (0-5)” value is 0.00, the “Mean Knee Cartilage Damage score (0-5)” value amounted to 0.00 and the “Mean Knee Pannus score (0-5)” value stood at 0.00. For the same compound, the “Serum IgG” value in data set [4] (terminal serum ELISA for anti-type II collagen antibodies) worked out at 2524.70 µg/mL.
